Source: US20120195860A1, “LATENT NEURAL STEM CELL POPULATION” (priority 2007, published 2012)
Counter-ions that a name gives are not always drawn.

Experiments:
[1] = system: cells derived from the spinal cord; assay: activation of cells derived from the spinal cord; type: cell-based; conditions: KCl
[2] = system: 33 week HD hippocampal precursors; assay: hippocampal neurosphere assay, Huntington's disease R6/1 mice; type: cell-based, mouse; conditions: 33 week old HD mice
Text: R6/1 (B6CBA-TgN(HDexon1)61 Gpb/Pan) mice were originally obtained from Jackson Laboratory (Bar Harbor, Me.) and maintained by backcrossing to CBB6F1 females. For the neurosphere assays we used HD exon 1 carriers (R6/1) and aged matched wild-type littermates. Huntington's Disease is a neurodegenerative disorder that affects the striatum and cortex as well as hippocampus (Murphy et al., 2000). Previous studies have shown that older symptomatic R6/1 transgenic mice have a significant decrease in cell proliferation in the hippocampus compared to wild-type mice whereas younger pre-symptomatic R6/1 and WT mice had similar levels of proliferation (Lazic et al., 2004). […] We observed a decrease in the total number of hippocampal neuroapheres with age in WT mice that was not observed in HD mice.

[3] = system: cortical cells; assay: primary neurosphere culture, cortex; type: cell-based, mouse; conditions: depolarization (potassium)
Procedure: Adult (6-8 week old) male C57/B16 mice were killed by cervical dislocation, their brains immediately removed and the hippocampus, SVZ, olfactory bulb or cortex dissected. The tissue was enzymatically digested with 0.1% trypsin-EDTA (Gibco/Invitrogen, Eugene, Oreg.) for 7 minutes at 37° C., followed by a wash with 0.014% w/v trypsin inhibitor (type I-S from soybean; Sigma-Aldrich. Australia, Sydney, Australia) dissolved in Hepes-buffered minimum essential medium (HEM), which consisted of minimum essential medium (Gibco/Invitrogen) supplemented with 16 mM HEPES (Sigma-Aldrich Australia) and 100 units/ml penicillin/streptomycin (Gibco/Invitrogene). The tissue was centrifuged at 100 rcf for 7 minutes, following which the pellet was resuspended in 1 ml neurosphere growth medium, mechanically triturated until smooth, then filtered through a 40 μm cell sieve (Falcon/BD Biosciences Australia, North Ryde, Australia). […]
The neurosphere growth medium already contained 4.18 mM KCl. […] The primary neurospheres were then counted and collected for passaging or differentiation. Results of the neurosphere counts were expressed as mean ± standard error and statistical analysis was performed using a standard t-Test (two sample assuming equal variance).

[4] = system: DCX+ve / DCX-ve and PNA positive adult hippocampal cells; assay: neurosphere assay on sorted hippocampal cells (DCX-GFP FACS, PNA binding); type: cell-based, mouse
Procedure: E14, P2 and adult brains were collected as described above and processed either whole or dissected into specific regions (olfactory bulb, cortex, cerebellum and subventricular zone (SVZ)). GFP+ve cells were separated by fluorescence-activated cell sorting (FACS) using a FACS Vantage cell sorter (BD Biosciences). A wild-type littermate control was used to determine background fluorescence levels. For primary neurosphere cultures the cells were plated at a density of 500 cells/well in 96-well plates (Falcon/BD Biosciences, San Jose, Calif.) with 0.2 ml complete medium per well. […] The primary neurospheres were then counted and collected for passaging or differentiation. Results of the neurosphere counts were expressed as mean + or − standard error and statistical analysis was performed using a standard t-Test (two sample assuming equal variance).
Mice in which the green fluorescent protein (GFP) is driven by the Doublecortin (DCX) promoter (DCX-GFP) were used for the separation of DCX^+ve cells. […] DCX-GFP^+ve and DCX-GFP^−ve cells were separated by fluorescence-activated cell sorting (FACS) using a FACS Vantage cell sorter (BD Biosciences) as described (see above). A wild-type littermate control was used to determine background fluorescence levels. Potassium was added to DCX^+ve and DCX^−ve cells at a final concentration of 15 mM and the number of neurospheres counted after 10 days.

[5] = system: adult mouse hippocampal cells; assay: primary neurosphere culture, hippocampus; type: cell-based
Procedure: Adult (6-8 week old) male C57/B16 mice were killed by cervical dislocation, their brains immediately removed and the hippocampus, SVZ, olfactory bulb or cortex dissected. The tissue was enzymatically digested with 0.1% trypsin-EDTA (Gibco/Invitrogen, Eugene, Oreg.) for 7 minutes at 37° C., followed by a wash with 0.014% w/v trypsin inhibitor (type I-S from soybean; Sigma-Aldrich. Australia, Sydney, Australia) dissolved in Hepes-buffered minimum essential medium (HEM), which consisted of minimum essential medium (Gibco/Invitrogen) supplemented with 16 mM HEPES (Sigma-Aldrich Australia) and 100 units/ml penicillin/streptomycin (Gibco/Invitrogene). The tissue was centrifuged at 100 rcf for 7 minutes, following which the pellet was resuspended in 1 ml neurosphere growth medium, mechanically triturated until smooth, then filtered through a 40 μm cell sieve (Falcon/BD Biosciences Australia, North Ryde, Australia). The neurosphere growth medium consisted of mouse NeuroCult™ NSC Basal Medium plus mouse NeuroCult™ NSC Proliferation Supplements (StemCell Technologies, Vancouver, Canada) with 2% bovine serum albumin (Roche, Basel, Switzerland) and 2 μg/ml heparin (Sigma-Aldrich Australia). […]

[6] = system: hippocampal precursors of mice that underwent SE; assay: hippocampal neurosphere assay after status epilepticus in vivo; design: species or system mouse
Procedure: Seizures were induced in 6-8 week old C57BL/6 male mice by the administration of pilocarpine, a muscarinic cholinergic agonist. Thirty minutes prior to pilocarpine administration, the mice were injected with 2.5 mg/kg of the cholinergic antagonist scopolamine methyl nitrate (Sigma-Aldrich) to reduce peripheral cholinergic effects. They then received intraperitoneal injections of 350 mg/kg pilocarpine hydrochloride (Sigma-Aldrich). […] Seizures were stopped 2 hours after status epilepticus onset, with an intraperitoneal injection of 5 mg/kg diazepam (Patulin, Parnell Laboratories Sydney, Australia).
In addition we observed that extended depolarization, between 24 and 48 hours exposure to high level of KCl is required for the stimulation to occur in WT hippocampus confirming the need for prolonged depolarization.

Structure (SMILES) | activation of spinal cord derived cells [1] | further increase of HD hippocampal precursors by potassium depolarization in vitro [2] | increase in neurosphere number in cortex [3] | response of DCX-ve vs DCX+ve population to high levels of potassium ([4]; 15 mM potassium, 10 days) | activation of PNA positive population ([4]; adult hippocampal cells separated by peanut agglutinin binding) | increase in number of neurospheres, stimulated compared to control ([5]; 18 month old hippocampus, depolarizing conditions) | formation of large neurospheres ([5]; potassium-induced depolarization, hippocampus) | further stimulation of precursors from SE mice by depolarizing potassium ([6]; SE at least 2 hours, sacrificed after 48 hours, potassium added in vitro) | activation of latent hippocampal population by induced seizures ([6]; injections of pilocarpine hydrochloride, FIG. 8A)
[Cl-].[K+] [KCl, potassium chloride] | activation | could not be further increased | over 3 fold | it is this population, and not the DCX^+ve population, that responds | activated | over 12 fold | stimulates the formation of increased numbers of large neurospheres | no further stimulatory effect | –
CC[C@@H]1C(=O)OC[C@@H]1Cc1cncn1C [pilocarpine hydrochloride] | – | – | – | – | – | – | – | – | activation
